Laboratory results published in US8143394B2, “Pyrido(3,2-d)pyrimidines useful for treating viral infections” (Gilead Sciences, Inc., priority 2006, dated 2012).

Key:
[1] = CC50 assay (CellTiter-Glo) in Huh-7 HCV replicon cells; assay type: cell-based, human; conditions: human, 50% cytostatic concentration
Procedure: (§1) The anti-HCV activity of the pyrido[3,2-d]pyrimidine derivatives of this invention was tested in a human hepatoma Huh-7 cell line harbouring a HCV replicon. The assay comprised the following steps:
(§2) Step 1: Compound Preparation and Serial Dilution
(§3) • 1. for water soluble pyrido[3,2-d]pyrimidine derivatives, a volume of 500 μL of solution in cell media (DMEM, 10% FBS, P/S, L-Glutamine) was prepared with a concentration being twice the concentration of the starting final serial dilution concentration. A volume of 150 μL of the solution was added to the pre-specified wells in column 1 of a 96-well cell culture plate (PerkinElmer, white plate, cat. #6005181, for EC50 assay; black plate, cat. #6005182 for CC50 assay). The rest of the plate, columns 2-12, was filled with 100 μL of cell media. The plate was then placed on a Precision 2000 Workstation to start the serial dilution. Compounds were diluted three times each step from column 1 to column 10. Column 11 was used as a blank control (no compound added). • 2. for pyrido[3,2-d]pyrimidine derivatives requiring DMSO to dissolve, serial dilution is performed in 50% DMSO in a 384-well plate. A solution containing a compound at 100-fold concentration of the starting final serial dilution concentration was prepared in 50% DMSO and added to the pre-specified wells in column 1 of a polypropylene 384-well plate. The plate was then placed on a Precision 2000 Workstation to start the serial dilution. After the serial dilution, a volume of 2 μL of the solution was transferred from the 384-well plate to a 96-well cell culture plate containing 100 μL of cell media on a Biomek FX Workstation. The DMSO concentration in the final assay condition was 0.5% after cells are added to the plate and the total volume in each well is brought to 200 μL. Step 2: to each well of the serial dilution plate prepared above, 100 μL of cell media containing 6000 suspended Huh-7 HCV replicon cells was added with a Multidrop workstation. The plates were incubated for 3 days at 37° C. with 5% CO2. Step 3: Detection: • a) for the EC50 assay, the media in a 96-well cell culture plate was aspirated with a Biotek EL405 plate-washer. A volume of 200 μL of a solution containing a 1:1 mixture of cell-lysis buffer (Promega, Luciferase Cell Culture Lysis 5X Reagent, cat. #E1531) and luciferase substrate solution (Promega, Luciferase Assay, cat. # E4550) was added to each well of the plate with Multidrop. The plate was incubated for 30 minutes at room temperature before the luminescence signal was measured with a TopCount plate-reader. • b) for the CC50 assay, a volume of 100 μL of pre-mixed CellTiter-Glo (Promega, cat. # G7572) solution is added directly to the cell culture in each well of the plate and the luminescence signal is measured with a TopCount plate-reader after 10 minutes of incubation at room temperature.
(§4) Results in table 13 are expressed by the following data: • the 50% effective concentration (EC50), i.e. the concentration that protects 50% of the cell monolayer from virus-induced cythopathic effect, and • the 50% cytostatic concentration (CC50), i.e. the concentration that results in 50% inhibition of cell growth.

HCV replicon = experiment: Anti-HCV replicon assay (EC50, luciferase readout); assay type: cell-based; conditions: Hepatitis C virus, 72 h; human hepatoma Huh-7 cell line harbouring a HCV replicon; 3 days; luciferase; read-out: EC50
Procedure: as §1, §2, §3, §4

Row | SMILES | CC50 at 3 days [1] [nM] | EC50 (HCV replicon) [nM]
1 | CC(C)(N)C(=O)Nc1ccc(-c2ccc3nc(N)nc(NCCS(C)(=O)=O)c3n2)cc1 [Example 1, 2-Amino-N-{4-[2-amino-4-(2-methanesulfonyl-ethylamino)-pyrido[3,2-d]pyrimidin-6-yl]-phenyl}-2-methyl-propionamide] | < 10000 | < 300
2 | CS(=O)(=O)CCNc1nc(N)nc2ccc(-c3cccc(NS(=O)(=O)C4CC4)c3)nc12 [Example 2, Cyclopropanesulfonic acid {3-[2-amino-4-(2-methanesulfonyl-ethylamino)-pyrido[3,2-d]pyrimidin-6-yl]-phenyl}-amide] | > 20000 | 300 to 1000
3 | CS(=O)(=O)CCNc1nc(N)nc2ccc(-c3cccc(NS(C)(=O)=O)c3)nc12 [Example 3, N-{3-[2-Amino-4-(2-methanesulfonyl-ethylamino)-pyrido[3,2-d]pyrimidin-6-yl]-phenyl}-methanesulfonamide] | > 20000 | 300 to 1000
4 | CCC(=O)Nc1ccc(-c2ccc3nc(N)nc(NCCS(C)(=O)=O)c3n2)cc1 [Example 4, N-{4-[2-Amino-4-(2-methanesulfonyl-ethylamino)-pyrido[3,2-d]pyrimidin-6-yl]-phenyl}-propionamide] | > 20000 | > 1000
5 | CC(C)C(=O)Nc1ccc(-c2ccc3nc(N)nc(NCCS(C)(=O)=O)c3n2)cc1 [Example 5, N-{4-[2-Amino-4-(2-methanesulfonyl-ethylamino)-pyrido[3,2-d]pyrimidin-6-yl]-phenyl}-isobutyramide] | > 20000 | < 300
6 | COC(=O)Nc1ccc(-c2ccc3nc(N)nc(NCCS(C)(=O)=O)c3n2)cc1 [Example 6, {4-[2-Amino-4-(2-methanesulfonyl-ethylamino)-pyrido[3,2-d]pyrimidin-6-yl]phenyl}-carbamic acid methyl ester] | 10000 to 20000 | 300 to 1000
7 | CS(=O)(=O)CCNc1nc(N)nc2ccc(-c3ccc(C(=O)NC4CC4)cc3)nc12 [Example 7, 4-[2-Amino-4-(2-methanesulfonyl-ethylamino)-pyrido[3,2-d]pyrimidin-6-yl]-N-cyclopropyl-benzamide] | > 20000 | 300 to 1000
8 | CCC(=O)Nc1ccc(-c2ccc3nc(N)nc(NCCOC)c3n2)cc1 [Example 8, N-{4-[2-Amino-4-(2-methoxy-ethylamino)-pyrido[3,2-d]pyrimidin-6-yl]-phenyl}-propionamide] | > 20000 | < 300
9 | COCCNc1nc(N)nc2ccc(-c3ccc(NC(=O)C(C)C)cc3)nc12 [Example 9, N-{4-[2-Amino-4-(2-methoxy-ethylamino)-pyrido[3,2-d]pyrimidin-6-yl]-phenyl}-isobutyramide] | 10000 to 20000 | < 300
10 | COCCNc1nc(N)nc2ccc(-c3ccc(NC(=O)OC)cc3)nc12 [Example 10, {4-[2-Amino-4-(2-methoxy-ethylamino)-pyrido[3,2-d]pyrimidin-6-yl]-phenyl}-carbamic acid methyl ester] | > 20000 | 300 to 1000
11 | COCCNc1nc(N)nc2ccc(-c3ccc(C(=O)NC4CC4)cc3)nc12 [Example 11, 4-[2-Amino-4-(2-methoxy-ethylamino)-pyrido[3,2-d]pyrimidin-6-yl]-N-cyclopropyl-benzamide] | > 20000 | < 300
12 | CCC(=O)Nc1ccc(-c2ccc3nc(N)nc(N4CCS(=O)(=O)CC4)c3n2)cc1 [Example 12, N-{4-[2-Amino-4-(1,1-dioxo-1λ^6-thiomorpholin-4-yl)-pyrido[3,2-d]pyrimidin-6-yl]-phenyl}-propionamide] | < 10000 | < 300
13 | COC(=O)Nc1ccc(-c2ccc3nc(N)nc(N4CCS(=O)(=O)CC4)c3n2)cc1 [Example 13, {4-[2-Amino-4-(1,1-dioxo-1λ^6-thiomorpholin-4-yl)-pyrido[3,2-d]pyrimidin-6-yl]-phenyl}-carbamic acid methyl ester] | > 20000 | < 300
14 | CC(C)C(=O)Nc1ccc(-c2ccc3nc(N)nc(N4CCS(=O)(=O)CC4)c3n2)cc1 [Example 14, N-{4-[2-Amino-4-(1,1-dioxo-1λ^6-thiomorpholin-4-yl)-pyrido[3,2-d]pyrimidin-6-yl]-phenyl}-isobutyramide] | > 20000 | < 300
15 | CC(=O)Nc1ccc(-c2ccc3nc(N)nc(N4CCS(=O)(=O)CC4)c3n2)cc1 [Example 15, N-{4-[2-Amino-4-(1,1-dioxo-1λ^6-thiomorpholin-4-yl)-pyrido[3,2-d]pyrimidin-6-yl]-phenyl}-acetamide] | > 20000 | < 300
16 | Nc1nc(N2CCS(=O)(=O)CC2)c2nc(-c3ccc(C(=O)NC4CC4)cc3)ccc2n1 [Example 16, 4-[2-Amino-4-(1,1-dioxo-1λ^6-thiomorpholin-4-yl)-pyrido[3,2-d]pyrimidin-6-yl]-N-cyclopropyl-benzamide] | 10000 to 20000 | < 300
17 | Nc1nc(N2CCOCC2)c2nc(-c3ccc(C(=O)NC4CC4)cc3)ccc2n1 [Example 17, 4-(2-amino-4-morpholin-4-yl-pyrido[3,2-d]pyrimidin-6-yl)-N-cyclopropyl-benzamide] | < 10000 | < 300
18 | CCC(=O)Nc1ccc(-c2ccc3nc(N)nc(OCCOC)c3n2)cc1 [Example 18, N-{4-[2-Amino-4-(2-methoxy-ethoxy)-pyrido[3,2-d]pyrimidin-6-yl]-phenyl}-propionamide] | > 20000 | 300 to 1000
19 | COCCOc1nc(N)nc2ccc(-c3ccc(NC(=O)OC)cc3)nc12 [Example 19, {4-[2-Amino-4-(2-methoxy-ethoxy)-pyrido[3,2-d]pyrimidin-6-yl]-phenyl}-carbamic acid methyl ester] | > 20000 | 300 to 1000
20 | COCCOc1nc(N)nc2ccc(-c3ccc(C(=O)NC4CC4)cc3)nc12 [Example 20, 4-[2-Amino-4-(2-methoxy-ethoxy)-pyrido[3,2-d]pyrimidin-6-yl]-N-cyclopropyl-benzamide] | > 20000 | < 300
21 | CC(C)C(=O)Nc1ccc(-c2ccc3nc(N)nc(OCCF)c3n2)cc1 [Example 21, N-{4-[2-amino-4-(2-fluoro-ethoxy)-pyrido[3,2-d]pyrimidin-6-yl]-phenyl}-isobutyramide] | > 20000 | 300 to 1000
22 | Nc1nc(O[C@@H]2CCOC2)c2nc(-c3ccc(NC(=O)[C@H]4CCNC4)c(F)c3)ccc2n1 [Example 22, Pyrrolidine-3-carboxylic acid {4-[2-amino-4-(tetrahydro-furan-3-yloxy)-pyrido[3,2-d]pyrimidin-6-yl]-2-fluoro-phenyl}-amide] | > 20000 | < 300
23 | CC(C)(N)C(=O)Nc1ccc(-c2ccc3nc(N)nc(O[C@@H]4CCOC4)c3n2)cc1F [Example 23, 2-Amino-N-{4-[2-amino-4-(tetrahydro-furan-3-yloxy)-pyrido[3,2-d]pyrimidin-6-yl]-2-fluoro-phenyl}-2-methyl-propionamide] | > 20000 | < 300
24 | Nc1nc(O[C@@H]2CCOC2)c2nc(-c3ccc(NC(=O)[C@H]4CCNC4)cc3)ccc2n1 [Example 24, Pyrrolidine-3-carboxylic acid {4-[2-amino-4-(tetrahydro-furan-3-yloxy)-pyrido[3,2-d]pyrimidin-6-yl]-phenyl}-amide] | > 20000 | > 1000
25 | CC(C)(N)C(=O)Nc1ccc(-c2ccc3nc(N)nc(O[C@@H]4CCOC4)c3n2)cc1 [Example 25, 2-Amino-N-{4-[2-amino-4-(tetrahydro-furan-3-yloxy)-pyrido[3,2-d]pyrimidin-6-yl]-phenyl}-2-methyl-propionamide] | 10000 to 20000 | < 300
26 | CS(=O)(=O)Nc1cccc(-c2ccc3nc(N)nc(O[C@@H]4CCOC4)c3n2)c1 [Example 26, N-{3-[2-Amino-4-(tetrahydro-furan-3-yloxy)-pyrido[3,2-d]pyrimidin-6-yl]-phenyl}-methanesulfonamide] | > 20000 | < 300
